± gives the standard deviation of the averaged measurements.
Legend:
U-2 OS [1] = experiment: intracellular GSH:GSSG ratio (calculated); higher = more reduced glutathione pool; details: 24 h
Protocol: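 Intracellular glutathione in U-2 OS cells after 24 h compound treatment at 5, 10 and 20 uM (some at 40 and 80 uM). Total glutathione and GSSG were measured with the GSH/GSSG-Glo kit, and the GSH:GSSG ratio was calculated. Mean of five technical replicate plates.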

U-2 OS [2] = experiment: cell viability (CellTiter-Glo) relative to DMSO (% of control); higher = more viable; details: 24 h
Protocol: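 Cell viability of U-2 OS cells by CellTiter-Glo after 24 h compound treatment at 5, 10 and 20 uM (some at 40 and 80 uM), measured in parallel with the glutathione assay, as percent of DMSO control. Five technical replicate plates, averaged.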

U-2 OS [3] = experiment: relative cell count vs DMSO (cell painting) (fraction of DMSO control); higher = more cells remaining (less cytotoxic); details: 24 h
How it was run: (§1)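 Cell painting used U-2 OS cells at about 1,500 per well in 384-well plates, treated by pin tool for 24 h at 37 °C, usually at six 2-fold concentrations from 20 μM to 625 nM. Cells were stained with MitoTracker, concanavalin A, phalloidin, wheat germ agglutinin, Hoechst and SYTO 14 and imaged on an Opera Phenix. Features were extracted with CellProfiler and normalized to DMSO cells on the same plate. The activity score is the Mahalanobis distance from DMSO wells; cell count is relative to DMSO wells. Values are means of four replicate plates.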

U-2 OS [4] = experiment: cell painting activity score (Mahalanobis distance from DMSO wells); higher = stronger morphological phenotype; details: 24 h
How it was run: as §1

U-2 OS [5] = experiment: total intracellular glutathione (GSH + GSSG) relative to DMSO (% of control); higher = more glutathione; details: 24 h
Protocol: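 Total intracellular glutathione (GSH + GSSG) in U-2 OS cells by GSH/GSSG-Glo after 24 h compound treatment at 5, 10 and 20 uM (some at 40 and 80 uM), as percent of DMSO control. Five technical replicate plates, averaged.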

U-2 OS [6] = experiment: AUC of culture confluence over time (live-cell imaging) (AUC (confluence % x time)); higher = more confluent culture (less growth inhibition)
How it was run: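 The value is the area under the curve of confluence plotted against time. U-2 OS cells in F-12K medium with 10% FBS were seeded at 750 per well in 384-well plates, then treated by pin tool 24 h later, most compounds at 20, 10 and 5 μM with 0.2% DMSO. At 37 °C, an Incucyte S3 with a 10x objective imaged the wells every 4 h for up to 60 h.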

With `S=C(Nc1ccccc1)Nc1nc(-c2ccccc2)[n+](-c2ccccc2)s1` the “intracellular GSH:GSSG ratio” value (U-2 OS [1]; 5 µM) was 27.8, the “intracellular GSH:GSSG ratio” value (U-2 OS [1]; 10 µM) was 18.7 and the “intracellular GSH:GSSG ratio” value (U-2 OS [1]; 20 µM) was 29. For the same compound, the cell viability (U-2 OS [2]; 5 µM) was 91.8 ± 2.3, the cell viability (U-2 OS [2]; 10 µM) was 106 ± 3.2 and the cell viability (U-2 OS [2]; 20 µM) was 97.5 ± 6.9. The relative cell count (U-2 OS [3]; 0.625 µM) was 0.907, the relative cell count (U-2 OS [3]; 1.25 µM) was 0.951 and the relative cell count (U-2 OS [3]; 2.5 µM) was 0.994. For the same compound, the relative cell count (U-2 OS [3]; 5 µM) was 0.926, the relative cell count (U-2 OS [3]; 10 µM) was 0.955 and the relative cell count (U-2 OS [3]; 20 µM) was 0.94. For the same compound, the “cell painting activity score” value (U-2 OS [4]; 0.625 µM) was 3.57, the “cell painting activity score” value (U-2 OS [4]; 1.25 µM) was 4.45 and the “cell painting activity score” value (U-2 OS [4]; 2.5 µM) was 5.25. For the same compound, the “cell painting activity score” value (U-2 OS [4]; 5 µM) was 3.52, the “cell painting activity score” value (U-2 OS [4]; 10 µM) was 6.94 and the “cell painting activity score” value (U-2 OS [4]; 20 µM) was 3.81. It also gave a total intracellular glutathione (U-2 OS [5]; 5 µM) of 116 ± 14, a total intracellular glutathione (U-2 OS [5]; 10 µM) of 96.7 ± 11 and a total intracellular glutathione (U-2 OS [5]; 20 µM) of 130 ± 9.9.

In the case of `CN(C)C/C=C/C(=O)Nc1cc2c(Nc3ccc(F)c(Cl)c3)ncnc2cc1O[C@H]1CCOC1`, the cell viability (U-2 OS [2]; 5 µM) is reported as 63 ± 4, the cell viability (U-2 OS [2]; 10 µM) is reported as 52.4 ± 3.5 and the cell viability (U-2 OS [2]; 20 µM) is reported as 47.2 ± 2.5. It also gave a relative cell count (U-2 OS [3]; 0.625 µM) of 0.955, a relative cell count (U-2 OS [3]; 1.25 µM) of 0.955 and a relative cell count (U-2 OS [3]; 2.5 µM) of 0.877. The relative cell count (U-2 OS [3]; 5 µM) was 0.894, the relative cell count (U-2 OS [3]; 10 µM) was 0.538 and the relative cell count (U-2 OS [3]; 20 µM) was 0.275. For the same compound, the “cell painting activity score” value (U-2 OS [4]; 0.625 µM) was 8.62, the “cell painting activity score” value (U-2 OS [4]; 1.25 µM) was 12.1 and the “cell painting activity score” value (U-2 OS [4]; 2.5 µM) was 12.2. For the same compound, the “cell painting activity score” value (U-2 OS [4]; 5 µM) was 11.2, the “cell painting activity score” value (U-2 OS [4]; 10 µM) was 12.6 and the “cell painting activity score” value (U-2 OS [4]; 20 µM) was 18.5. The total intracellular glutathione (U-2 OS [5]; 5 µM) was 101 ± 4.4, the total intracellular glutathione (U-2 OS [5]; 10 µM) was 110 ± 3.7 and the total intracellular glutathione (U-2 OS [5]; 20 µM) was 105 ± 2.6.

In the case of `CC(C)([C@](C1=O)(C2=O)C/C=C(C)\C)[C@@H](C[C@]31C[C@@H](C(C)(OC3=C2C(C4=CC(O)=C(C=C4)O)=O)C)C/C=C(C)\C)C/C=C(C)\C`, the “intracellular GSH:GSSG ratio” value (U-2 OS [1]; 5 µM) is reported as 27, the “intracellular GSH:GSSG ratio” value (U-2 OS [1]; 10 µM) is reported as 22.3 and the “intracellular GSH:GSSG ratio” value (U-2 OS [1]; 20 µM) is reported as 10.9. For the same compound, the “intracellular GSH:GSSG ratio” value (U-2 OS [1]; 80 µM) was 17.8, the cell viability (U-2 OS [2]; 5 µM) was 99.7 ± 2.4 and the cell viability (U-2 OS [2]; 10 µM) was 62.6 ± 14. The cell viability (U-2 OS [2]; 20 µM) was 43.4 ± 17, the cell viability (U-2 OS [2]; 40 µM) was 0.646 ± 0.18 and the cell viability (U-2 OS [2]; 80 µM) was 0.745 ± 0.2. It also gave a relative cell count (U-2 OS [3]; 0.625 µM) of 1.21, a relative cell count (U-2 OS [3]; 1.25 µM) of 1.12 and a relative cell count (U-2 OS [3]; 2.5 µM) of 1.19. The relative cell count (U-2 OS [3]; 5 µM) was 1.15, the relative cell count (U-2 OS [3]; 10 µM) was 1.04 and the relative cell count (U-2 OS [3]; 20 µM) was 0.492. For the same compound, the “cell painting activity score” value (U-2 OS [4]; 0.625 µM) was 3.69, the “cell painting activity score” value (U-2 OS [4]; 1.25 µM) was 3.85 and the “cell painting activity score” value (U-2 OS [4]; 2.5 µM) was 6.36. The “cell painting activity score” value (U-2 OS [4]; 5 µM) was 7.13, the “cell painting activity score” value (U-2 OS [4]; 10 µM) was 13.5 and the “cell painting activity score” value (U-2 OS [4]; 20 µM) was 18.6.

Compound `O=C1C(Cl)=C(NCCN2CCOCC2)C(=O)c2ncccc21` has a cell viability (U-2 OS [2]; 5 µM) of 0.868 ± 0.067, a cell viability (U-2 OS [2]; 10 µM) of 0.657 ± 0.091 and a cell viability (U-2 OS [2]; 20 µM) of 0.819 ± 0.053. For the same compound, the “AUC of culture confluence over time” value (U-2 OS [6]; 5 µM) was 16.5, the “AUC of culture confluence over time” value (U-2 OS [6]; 10 µM) was 14.9 and the “AUC of culture confluence over time” value (U-2 OS [6]; 20 µM) was 12. For the same compound, the relative cell count (U-2 OS [3]; 0.625 µM) was 0.808, the relative cell count (U-2 OS [3]; 1.25 µM) was 0.755 and the relative cell count (U-2 OS [3]; 2.5 µM) was 0.474. For the same compound, the relative cell count (U-2 OS [3]; 5 µM) was 0.317, the relative cell count (U-2 OS [3]; 10 µM) was 0.049 and the relative cell count (U-2 OS [3]; 20 µM) was 0.0399. For the same compound, the “cell painting activity score” value (U-2 OS [4]; 0.625 µM) was 5.61, the “cell painting activity score” value (U-2 OS [4]; 1.25 µM) was 10.4 and the “cell painting activity score” value (U-2 OS [4]; 2.5 µM) was 14.7. For the same compound, the “cell painting activity score” value (U-2 OS [4]; 5 µM) was 21.2, the “cell painting activity score” value (U-2 OS [4]; 10 µM) was 26.9 and the “cell painting activity score” value (U-2 OS [4]; 20 µM) was 26.9. It also gave a total intracellular glutathione (U-2 OS [5]; 5 µM) of 1.89 ± 0.18, a total intracellular glutathione (U-2 OS [5]; 10 µM) of 2.12 ± 0.18 and a total intracellular glutathione (U-2 OS [5]; 20 µM) of 1.91 ± 0.3.
